Measurements taken from patent US20070123546A1, “2-amino-7,8-dihydro-6H-pyrido[4,3-d]pyrimidin-5-ones” (Chiron Corporation, priority 2005, published 2007).

Target: His-tagged N-terminal ATP binding domain (amino acid residues 9-236) of HSP90α (Homo sapiens, UniProt P07900)
Assay: HSP90 inhibitor binding potency: TRF competition binding assay
Conditions: Table 1; competition with biotinylated radicicol
Procedure: HSP90 Inhibitor Binding Potency: TRF Binding Assay
In this example, the binding potency of HSP90 inhibitors as measured by a TRF binding assay is described.
TRF competition binding assays were performed to determine the binding potency (IC50 values) of HSP90 inhibitors. Purified His-tagged N-terminal ATP binding domain (amino acid residues 9-236) of HSP90α (HSP90α GeneID: 3320; mRNA Sequence NM_005348) was incubated for two hours at room temperature in binding buffer (50 mM HEPES, 6 mM MgCl2, 20 mM KCl and 0.1% BSA) with biotinylated radicicol and progressively higher concentrations of the competing compounds. A fraction of the mixture was transferred to capture plates (coated with streptavidin) and incubated for one hour at room temperature. After washing with DELFIA wash buffer, europium-labeled anti-his antibody was added and incubated for two hours at room temperature, followed by washing with DELFIA buffer. DELFIA enhancement solution was then added. After gentle shaking for 10 minutes, the plates were read in VICTOR for europium counts.

SMILES	IC50 [µM]
Cc1nc(N)nc2c1C(=O)NC(c1ccc(F)cc1-c1cccnc1)C2 (centres unmarked) [Compound 28, 2-Amino-7-(4-fluoro-2-pyridin-3-yl-phenyl)-4-methyl-7,8-dihydro-6H-pyrido[4,3-d]pyrimidin-5-one]	< 10
Cc1ccc(-c2cc(F)ccc2C2Cc3nc(N)nc(C)c3C(=O)N2)c(F)c1 (centres unmarked) [Compound 29, 2-Amino-7-(5,2′-difluoro-4′-methyl-biphenyl-2-yl)-4-methyl-7,8-dihydro-6H-pyrido[4,3-d]pyrimidin-5-one]	< 10
Cc1nc(N)nc2c1C(=O)NC(c1ccc(F)cc1-c1cnn(C)c1)C2 (centres unmarked) [Compound 30, 2-Amino-7-[4-fluoro-2-(1-methyl-1H-pyrazol-4-yl)-phenyl]-4-methyl-7,8-dihydro-6H-pyrido[4,3-d]pyrimidin-5-one]	< 10
Cc1nc(N)nc2c1C(=O)NC(c1ccc(F)cc1-c1cn[nH]c1)C2 (centres unmarked) [Compound 31, 2-Amino-7-[4-fluoro-2-(1H-pyrazol-4-yl)-phenyl]-4-methyl-7,8-dihydro-6H-pyrido[4,3-d]pyrimidin-5-one]	> 10
Cc1nc(N)nc2c1C(=O)NC(c1ccc(F)cc1-c1cccc(F)c1F)C2 (centres unmarked) [Compound 32]	< 10
Cc1nc(N)nc2c1C(=O)N(CC(C)(C)N1CCOCC1)C(c1ccc(F)cc1Br)C2 (centres unmarked) [Compound 33, 2-Amino-7-(2-bromo-4-fluoro-phenyl)-4-methyl-6-(2-methyl-2-morpholin-4-yl-propyl)-7,8-dihydro-6H-pyrido[4,3-d]pyrimidin-5-one]	> 10
Cc1nc(N)nc2c1C(=O)NC(c1ccc(F)cc1-c1cccc(N(C)C)c1)C2 (centres unmarked) [Compound 34, 2-Amino-7-(3′-dimethylamino-5-fluoro-biphenyl-2-yl)-4-methyl-7,8-dihydro-6H-pyrido[4,3-d]pyrimidin-5-one]	> 10

Next, values leading:

IC50 [µM]	SMILES
> 10	COc1ncc(-c2cc(F)ccc2C2Cc3nc(N)nc(C)c3C(=O)N2)c(OC)n1 (centres unmarked) [Compound 35, 2-Amino-7-[2-(2,4-dimethoxy-pyrimidin-5-yl)-4-fluoro-phenyl]-4-methyl-7,8-dihydro-6H-pyrido[4,3-d]pyrimidin-5-one]
< 10	COc1cncc(-c2cc(F)ccc2C2Cc3nc(N)nc(C)c3C(=O)N2)c1 (centres unmarked) [Compound 36, 2-Amino-7-[4-fluoro-2-(5-methoxy-pyridin-3-yl)-phenyl]-4-methyl-7,8-dihydro-6H-pyrido[4,3-d]pyrimidin-5-one]
> 10	Cc1nc(N)nc2c1C(=O)N(CC(C)(C)N1CCOCC1)C(c1ccc(F)cc1-c1cncnc1)C2 (centres unmarked) [Compound 37, 2-Amino-7-(4-fluoro-2-pyrimidin-5-yl-phenyl)-4-methyl-6-(2-methyl-2-morpholin-4-yl-propyl)-7,8-dihydro-6H-pyrido[4,3-d]pyrimidin-5-one]
> 10	COc1ncccc1-c1cc(F)ccc1C1Cc2nc(N)nc(C)c2C(=O)N1CC(C)(C)N1CCOCC1 (centres unmarked) [Compound 38, 2-Amino-7-[4-fluoro-2-(2-methoxy-pyridin-3-yl)-phenyl]-4-methyl-6-(2-methyl-2-morpholin-4-yl-propyl)-7,8-dihydro-6H-pyrido[4,3-d]pyrimidin-5-one]
> 10	COc1cccc(-c2cc(F)ccc2C2Cc3nc(N)nc(C)c3C(=O)N2CC(C)(C)N2CCOCC2)c1 (centres unmarked) [Compound 39, 2-Amino-7-(5-fluoro-3′-methoxy-biphenyl-2-yl)-4-methyl-6-(2-methyl-2-morpholin-4-yl-propyl)-7,8-dihydro-6H-pyrido[4,3-d]pyrimidin-5-one]
< 10	COc1nc(-c2cc(F)ccc2[C@H]2Cc3nc(N)nc(C)c3C(=O)N2)ncc1C [Compound 40, (R)-2-Amino-7-[4-fluoro-2-(4-methoxy-5-methyl-pyrimidin-2-yl)-phenyl]-4-methyl-7,8-dihydro-6H-pyrido[4,3-d]pyrimidin-5-one]
< 10	Cc1nc(N)nc2c1C(=O)NC(c1ccc(F)cc1-c1ccoc1)C2 (centres unmarked) [Compound 41, 2-Amino-7-(4-fluoro-2-furan-3-yl-phenyl)-4-methyl-7,8-dihydro-6H-pyrido[4,3-d]pyrimidin-5-one]
